From ChEMBL document CHEMBL6078677, “Discovery and optimization of tetrahydroacridine derivatives as a novel class of antibiotics against multidrug-resistant Gram-positive pathogens by targeting type I signal peptidase and disrupting bacterial membrane” (Eur J Med Chem, 2025)
≈ marks a conversion by molar mass, not a printed value. Calls of active or inactive are those of the source. The rule behind the calls is not given here.

Columns and labels:
Staphylococcus aureus [1] = assay: Antimicrobial activity against Staphylococcus aureus YZSA-21 harboring erythromycin resistance rRNA methylase C assessed as inhibition of visible growth of bacteria incubated for 20 hrs by broth microdilution method; format: functional
[2] = Metabolic stability in mouse liver microsomes assessed as hepatic extraction ratio at 100 uM preincubated for 5 mins followed by NADPH addition and measured upto 60 mins by LC-MS/MS analysis; format: ADME, Microsome; conditions: time < 65 min, read-out: ERH
Staphylococcus aureus [3] = assay: Antimicrobial activity against Staphylococcus aureus YZSA-24 harboring erythromycin resistance rRNA methylase C and methicillin resistance gene resistance locus assessed as inhibition of visible growth of bacteria incubated for 20 hrs by broth microdilution method; format: functional
Cell membrane [4] = assay: Disruption of cell membrane integrity in Staphylococcus aureus ATCC 29213 assessed as increase in red fluorescence intensity incubated for 4 hrs by SYTO-9/PI staining based LIVE/DEAD Baclight bacterial viability assay; format: subcellular
[5] = Cytotoxicity against human Caco-2 cells assessed as reduction in cell viability incubated for 48 hrs by CCK8 assay; format: toxicity, cell-based
Staphylococcus aureus [6] = assay: Antibacterial activity against methicillin-resistant Staphylococcus aureus YZSA-24 infected in cyclophosphamide-induced neutrophil depleted female ICR mouse model of skin infection assessed as log reduction in bacterial load at 1 %, TOP preadministered with cyclophosphamide for 5 days followed by bacterial administration and measured after 25 hrs of compound administration relative to ampicillin group; format: functional
Pseudomonas aeruginosa [7] = assay: Antimicrobial activity against Pseudomonas aeruginosa PA01 assessed as inhibition of visible growth of bacteria incubated for 20 hrs by broth microdilution method; format: functional
Enterococcus faecalis [8] = assay: Antimicrobial activity against Enterococcus faecalis J2 harboring erythromycin-resistance rRNA methylase B and oxazolidinone phenicol transferable resistance gene assessed as inhibition of visible growth of bacteria incubated for 20 hrs by broth microdilution method; format: functional
Enterococcus faecium [9] = assay: Antimicrobial activity against Enterococcus faecium QF31 harboring erythromycin resistance rRNA methylase B and chloramphenicol-florfenicol resistance methylase assessed as inhibition of visible growth of bacteria incubated for 20 hrs by broth microdilution method; format: functional
[10] = Cytotoxicity against human HEp-2 cells assessed as cell viability at 2 times of MIC incubated for 48 hrs by CCK8 assay (reference value: 100 %); format: toxicity, cell-based; conditions: read-out: Activity
[11] = Acute toxicity in ICR mouse model assessed as change in body weight at 25 to 100 mg/kg, IG administered for 7 days; format: organism-based; conditions: in vivo, po, 168 h, dose 25-100 mg/kg, time 7 day
[12] = Cytotoxicity against human Caco-2 cells assessed as cell viability at 8 times of MIC incubated for 48 hrs by CCK8 assay (reference value: 99.54 %); format: toxicity, cell-based; conditions: read-out: Activity
[13] = Cytotoxicity against human Caco-2 cells assessed as cell viability at 16 times of MIC incubated for 48 hrs by CCK8 assay (reference value: 99.54 %); format: toxicity, cell-based; conditions: read-out: Activity
Staphylococcus aureus [14] = assay: Antibiofilm activity in Staphylococcus aureus ATCC 29213 assessed as reduction in biofilm formation at 0.5 to 2 times of MIC measured after 72 hrs by SEM analysis; format: functional, organism-based
Enterococcus faecalis [15] = assay: Antimicrobial activity against Enterococcus faecalis JH2-2 assessed as inhibition of visible growth of bacteria incubated for 20 hrs by broth microdilution method; format: functional
[16] = Cytotoxicity against human HEp-2 cells assessed as cell viability at 1 time of MIC incubated for 48 hrs by CCK8 assay (reference value: 100 %); format: toxicity, cell-based; conditions: read-out: Activity
[17] = Acute toxicity in ICR mouse model assessed as change in heart pathology at 25 to 100 mg/kg, IG administered for 7 days by H and E staining based analysis; format: organism-based; conditions: in vivo, po, 168 h, dose 25-100 mg/kg, time 7 day
[18] = Hemolytic activity in Kunming mouse erythrocytes assessed as hemolysis at 2 times of MIC measured after 1 hrs by absorbance based assay relative to control; format: toxicity, cell-based, Erythrocyte; conditions: read-out: Activity
[19] = Metabolic stability in rat liver microsomes assessed as half-life at 100 uM preincubated for 5 mins followed by NADPH addition and measured upto 60 mins by LC-MS/MS analysis; format: ADME, Microsome; conditions: time < 65 min
[20] = Hemolytic activity in Kunming mouse erythrocytes assessed as hemolysis at 1 time of MIC measured after 1 hrs by absorbance based assay relative to control; format: toxicity, cell-based, Erythrocyte; conditions: read-out: Activity
[21] = Metabolic stability in mouse liver microsomes assessed as intrinsic clearance at 100 uM preincubated for 5 mins followed by NADPH addition and measured upto 60 mins by LC-MS/MS analysis; format: ADME, Microsome; conditions: time < 65 min, read-out: CLH
[22] = Metabolic stability in mouse liver microsomes assessed as half-life at 100 uM preincubated for 5 mins followed by NADPH addition and measured upto 60 mins by LC-MS/MS analysis; format: ADME, Microsome; conditions: time < 65 min
Staphylococcus aureus [23] = assay: Bactericidal activity against Staphylococcus aureus ATCC 29213 assessed as decrease in bacterial number measured within 12 hrs by time-kill kinetics assay; format: functional, organism-based
Streptococcus pyogenes = assay: Antimicrobial activity against Streptococcus pyogenes DL02 harboring erythromycin-resistance rRNA methylase B assessed as inhibition of visible growth of bacteria incubated for 20 hrs by broth microdilution method; format: functional
Staphylococcus aureus [24] = assay: Antibacterial activity against methicillin-resistant Staphylococcus aureus YZSA-24 infected in cyclophosphamide-induced neutrophil depleted female ICR mouse model of skin infection assessed as log reduction in bacterial load at 2.5 %, TOP preadministered with cyclophosphamide for 5 days followed by bacterial administration and measured after 25 hrs of compound administration relative to […] group; format: functional
Klebsiella pneumoniae = assay: Antimicrobial activity against Klebsiella pneumoniae 9-1 assessed as inhibition of visible growth of bacteria incubated for 20 hrs by broth microdilution method; format: functional
[25] = Cytotoxicity against human Caco-2 cells assessed as cell viability at 1 time of MIC incubated for 48 hrs by CCK8 assay (reference value: 99.54 %); format: toxicity, cell-based; conditions: read-out: Activity
Acinetobacter baumannii [26] = assay: Antimicrobial activity against Acinetobacter baumannii 7979 assessed as inhibition of visible growth of bacteria incubated for 20 hrs by broth microdilution method; format: functional
Enterococcus faecium [27] = assay: Antimicrobial activity against Enterococcus faecium HFY01 assessed as inhibition of visible growth of bacteria incubated for 20 hrs by broth microdilution method; format: functional
[28] = Metabolic stability in rat liver microsomes assessed as hepatic extraction ratio at 100 uM preincubated for 5 mins followed by NADPH addition and measured upto 60 mins by LC-MS/MS analysis; format: ADME, Microsome; conditions: time < 65 min, read-out: ERH
Pseudomonas aeruginosa [29] = assay: Antimicrobial activity against Pseudomonas aeruginosa PA14 assessed as inhibition of visible growth of bacteria incubated for 20 hrs by broth microdilution method; format: functional
Acinetobacter baumannii [30] = assay: Antimicrobial activity against Acinetobacter baumannii AB11 assessed as inhibition of visible growth of bacteria incubated for 20 hrs by broth microdilution method; format: functional
Streptococcus agalactiae = assay: Antimicrobial activity against Streptococcus agalactiae DL03 harboring erythromycin-resistance rRNA methylase B assessed as inhibition of visible growth of bacteria incubated for 20 hrs by broth microdilution method; format: functional
Signal peptidase I = Signal peptidase I (Escherichia coli K-12, UniProt P00803); assay: Binding affinity to recombinant 6His-tagged Escherichia coli LepB (77 to 324 residues) extracted from Escherichia coli BL21 (DE3) cells assessed as dissociation constant by MST analysis
Sequence of Signal peptidase I (P00803 whole entry, the tested form may be a part): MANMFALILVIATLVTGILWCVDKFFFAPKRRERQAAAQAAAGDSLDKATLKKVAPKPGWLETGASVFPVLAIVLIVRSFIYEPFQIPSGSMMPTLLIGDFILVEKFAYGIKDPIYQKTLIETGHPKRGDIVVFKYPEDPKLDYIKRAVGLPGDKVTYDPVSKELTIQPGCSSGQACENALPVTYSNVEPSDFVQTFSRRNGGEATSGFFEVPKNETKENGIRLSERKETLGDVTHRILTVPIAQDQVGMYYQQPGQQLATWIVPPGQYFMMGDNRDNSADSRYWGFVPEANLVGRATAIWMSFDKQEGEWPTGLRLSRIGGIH

Cell membrane [31] = assay: Disruption of cell membrane integrity in Staphylococcus aureus ATCC 29213 assessed as appearance of rupture surface at 0.5 to 2 times of MIC by scanning electron microscopic analysis; format: subcellular

Compound: CC1C/C(=C\c2ccc(-c3ccc(Cl)c(C(F)(F)F)c3)s2)c2nc3ccccc3c(C(=O)O)c2C1 (racemic)
- MIC (Staphylococcus aureus [1]): 1 mg/L (≈ 1.95 µM)
- hepatic extraction ratio at 1 h, 100 µM [2]: < 0.26
- MIC (Staphylococcus aureus [3]): 1 mg/L (≈ 1.95 µM)
- Activity (Cell membrane [4]): Dose-dependent-effect
- CC50 at 48 h [5]: 21.9 mg/L (≈ 42.7 µM)
- Activity (Staphylococcus aureus [6]): 1.21 log10CFU/ml
- MIC (Pseudomonas aeruginosa [7]): > 128 mg/L
- MIC (Enterococcus faecalis [8]): 2 mg/L (≈ 3.89 µM)
- MIC (Enterococcus faecium [9]): 2 mg/L (≈ 3.89 µM)
- viability at 48 h, 2 times of MIC [10]: 93.7%
- Activity [11]: Non-toxic
- viability at 48 h, 8 times of MIC [12]: 72.8%
- viability at 48 h, 16 times of MIC [13]: 61.7%
- Activity (Staphylococcus aureus [14]): Active; Some Sections Appeared To Be Damaged And Broken
- MIC (Enterococcus faecalis [15]): 1 mg/L (≈ 1.95 µM)
- viability at 48 h, 1 time of MIC [16]: 96.9%
- Activity [17]: Non-toxic
- hemolysis at 1 h, 2 times of MIC [18]: 0%
- half-life at 100 µM [19]: > 3.08 h
- hemolysis at 1 h, 1 time of MIC [20]: 0%
- microsomal CLint at 100 µM [21]: < 7.5 µL/min/mg
- half-life at 100 µM [22]: > 3.08 h
- Activity (Staphylococcus aureus [23]): Dose-dependent-effect
- MIC (Streptococcus pyogenes): 16 mg/L (≈ 31.1 µM)
- Activity (Staphylococcus aureus [24]): 2.3 log10CFU/ml
- MIC (Klebsiella pneumoniae): > 128 mg/L
- viability at 48 h, 1 time of MIC [25]: 96.6%
- MIC (Acinetobacter baumannii [26]): > 128 mg/L
- MIC (Enterococcus faecium [27]): 2 mg/L (≈ 3.89 µM)
- hepatic extraction ratio at 1 h, 100 µM [28]: < 0.21
- MIC (Pseudomonas aeruginosa [29]): > 128 mg/L
- MIC (Acinetobacter baumannii [30]): > 128 mg/L
- MIC (Streptococcus agalactiae): 32 mg/L (≈ 62.3 µM)
- Kd (Signal peptidase I): 13.6 µM
- Activity (Cell membrane [31]): Active
